Measured values: patent publication US12403121B2, “Anticancer rocaglamide derivatives” (priority 2018, dated 2025)

Legend:
in vivo = experiment: in vivo; design: species or system mice; details: mouse
Protocol: Mice were administered with a 5 mg/kg dose of Roc by intravenous (IV) or intraperitoneal injection (IP) or by oral gavage (PO). Blood samples were collected before and at multiple indicated time-points after dosing (n=3). Plasma samples were obtained by centrifugation and stored at −80° C. To measure plasma concentrations of Roc, a sensitive liquid chromatography coupled with tandem mass spectrometry detection (LC/MS-MS) method was developed. The reference compounds Roc (NSC326408) and pipernyl rocaglate (NSC784086) were provided by the NCI Developmental Therapeutics Program with pipernyl rocaglate used as the internal standard for quantitation. Plasma samples were processed by taking 100 μl of plasma and adding 300 μl of methanol containing 0.05 μM of internal standard. The samples were vortexed and centrifuged at 10,000×g for 10 min. The supernatant was collected and evaporated to dryness. Dried samples were reconstituted in 100 μl of 1:1 water:acetonitrile and centrifuges at 10,000×g for 3 min, followed by injecting 10 μl into an HPLC. Compounds of interest were separated on a Kinetex EVO C18 column (150×2.1 mm) with a flow rate of 0.25 ml/min. Mobile phase consisted of 80% ammonium formate buffer (1 g/L) and 20% acetonitrile at the start of the run, and a linear gradient to 10% ammonium formate/90% acetonitrile was applied over 14 min. Roc and the internal standard were identified by MS/MS using a Thema) Vantage TSQ run in positive ion mode. The transitions used were m/z 506 to m/z 352 (Roc) and m/z 570 to m/z 450 (internal standard). […] Samples found to be above 2.5 μM of Roc were reanalyzed after dilution with blank plasma. Absolute recoveries of Roc from plasma were to be >98%. AUC estimations were made manually using the trapezoidal method of integration.
To examine the oral bioavailability, PK studies were conducted to compare mice that had been dosed with Roc at 5 mg/kg via the IV, IP, or PO route, followed by measuring Roc concentrations in blood samples collected at various times post dosing. Two separate studies with three mice at each time point for each route of dosing were conducted. […] Areas under the plasma concentration-time curves (AUC0-7h) produced 245 μM min of exposure in the IV route and 142 μM min of exposure in the PO route. The concentrations of Roc appeared to more slowly decline in the plasma over 24 h (T1/2=2.4 hour) with the PO route compared to those dosed by IV route (T1/2=˜1.5 hour).

[1] = Kinghorn et al. 2016 and NCI Developmental Therapeutics Program study, same conditions; cited from earlier work
[2] = system: ST8814-Luc MPNST xenografts; experiment: Orthotopic ST8814-Luc MPNST cell line-derived xenograft, bioluminescence imaging and IHC; format: in vivo, NSG mice; details: 4 weeks
Protocol: All animal work was performed according to the protocols approved by the Institutional Animal Care and Use Committee at Nationwide Children's Hospital. For animal dosing, Roc was formulated in 30% hydroxypropyl-β-cyclodextrin (HPβCD; CTD, Inc.). To generate the orthotopic MPNST CDX model, ST8814-Luc cells were injected into the sciatic nerves of NSG mice (NOD.Cg-Prkdc^scid Il2rg^imlWjl/SzJ; The Jackson Laboratory), followed by bioluminescence imaging (BLI) to monitor tumor growth. Burns and Chang, Methods Mol Biol., 1427:59-72 (2016). Mice bearing established ST8814-Luc tumors, as defined by increasing bioluminescence signals over at least two time points, were randomized into three groups (n=10 mice) and treated with the predetermined maximum tolerated dose (MTD) of Roc at 4 mg/kg by IP or 1.2 mg/kg by oral gavage, or the vehicle HPβCD every other day. Tumor growth was measured weekly by BLI. Following 4 weeks of treatment, tumors were harvested for histological analysis.
Sections from Roc or vehicle-treated MPNST tumors were prepared and stained with hematoxylin and eosin (H&E) or immunostained for p-histone H3(Ser^10) (pH3; ab32107, Abeam) or CC3 (#9664, Cell Signaling) as previously described. Burns et al., Cancer Res., 73:792-803 (2013).
To evaluate the in vivo activity of Roc, the inventors treated NSG mice bearing luciferase-expressing ST8814-Luc tumors implanted in the sciatic nerve with Roc at the predetermined MTD (4 mg/kg by IP or 1.2 mg/kg oral gavage), or IPβCD as the vehicle control every other day.

[3] = system: A673, TC32, 143B, MG-63, Saos2, OS17 and RD sarcoma cell lines; experiment: Cell proliferation in Ewing sarcoma, osteosarcoma and rhabdomyosarcoma cell lines; format: cell-based; details: two Ewing sarcoma, four osteosarcoma, one rhabdomyosarcoma cell lines
Protocol: The human MPNST cell lines, ST8814, STS26T, S462, T265, and luciferase-expressing ST8814-Luc, the human NF2-deficient meningioma cell line Ben-Men-1, the NJ2 mouse schwannoma cell line Sch10545, and primary human Schwann cells were propagated as previously described. Oblinger et al., Neuro-Oncol., 18:1265-1277 (2016). The Ewing sarcoma cell line A673 and the osteosarcoma cell lines, 143B and MG-63, were grown in Dulbecco's Modified Eagle's (DME) medium (Millipore-Sigma) supplemented with 10% fetal bovine serum (FBS; Atlanta Biological). The silvestrol-sensitive 697 and silvestrol-resistant 697-R pre-B acute lymphoblastic leukemia cells (Gupta et al., AAPS J., 13:357-364 (2011)), the Ewing sarcoma cell line TC32, the osteosarcoma cell lines, Saos2 and OS17, and the rhabdomyosarcoma cell line RD were cultivated in RPMI 1640 medium (Millipore-Sigma) plus 10% FBS.
(§1) Actively-growing cells were seeded in 96-well plates (Sarstedt) at 2,000 cells/well for Ben-Men-1 and RD cells, 30,000 cells/well for 697 and 697-R cells, and 4,000 cells/well for all other cell lines. The following day, cells were treated with various concentrations of each compound or and 0.05% of DMSO as the control for six days for MG-63 cells or three days for all remaining cell lines. Cell proliferation was assessed using resazurin assays and the IC50 value calculated. Cell cycle analysis was performed accordingly. Burns et al., Cancer Res., 73:792-803 (2013).
Since MPNSTs comprise only ˜2% of all sarcomas (Farid et al. Oncologist, 19:193-201 (2014)), the inventors expanded their testing of Roc and DDR to three other more prevalent sarcomas particularly in children and young adults: Ewing sarcoma, osteosarcoma, and rhabdomyosarcoma.

[4] = system: STS26T and ST8814 MPNST cells; experiment: Flow cytometry cell cycle analysis; format: cell-based, human; details: one- or two-IC50 doses, three days
Protocol: as §1

Q: With `COc1ccc([C@@]23Oc4cc(OC)cc(OC)c4[C@]2(O)[C@H](O)[C@H](C(=O)N(C)C)[C@H]3c2ccccc2)cc1` [Roc, rocaglamide] as the compound, how does the “Area under the plasma concentration-time curve (AUC0-7h)” value (in vivo; iv, 5 mg/kg) read?
A: 245 µM·min

Q: And the half-life (in vivo; iv, 5 mg/kg)?
A: ~1.5 h

Q: And the “improvement of oral bioavailability over silvestrol” value (in vivo; po)?
A: > 25 fold

Q: What about the “Area under the plasma concentration-time curve (AUC0-7h)” value (in vivo; po, 5 mg/kg) of the same compound?
A: 142 µM·min

Q: And the Cmax (in vivo; po, 5 mg/kg)?
A: ~800 nM

Q: And the T1/2 (in vivo; po, 5 mg/kg)?
A: 2.4 h

Q: What about the bioavailability (in vivo; po, 5 mg/kg) of the same compound?
A: ~50%

Q: And the “pulmonary toxicity in dogs” value [1]?
A: did not induce the toxicity

Q: And the “increase of tumor bioluminescence over four weeks” value ([2]; 1.2 mg/kg PO (oral gavage) every other day, vehicle ~17,000-fold)?
A: ~470 fold

Q: What about the “reduction in tumor bioluminescence compared to controls” value ([2]; 1.2 mg/kg oral gavage every other day) of the same compound?
A: > 95%

Q: What about the “reduction in tumor luminescence compared to controls” value ([2]; 4 mg/kg IP every other day) of the same compound?
A: > 99%

Q: What about the “phospho-histone H3 labeling in tumors vs vehicle” value ([2]; IP- or orally-delivered, IHC) of the same compound?
A: much higher prevalence

Q: And the “cleaved caspase-3 positive cells in tumors” value ([2]; Roc-treated tumors, IHC)?
A: increased numbers

Q: And the “activity against sarcoma cell lines” value [3]?
A: highly active

Q: And the G2/M fraction [4]?
A: marked increase in the GVM fraction
